Test results taken from patent US8710184B2, “Motilin-like peptide compound having transmucosal absorbability imparted thereto” (Daiichi Sankyo Company, Limited, priority 2009, dated 2014).
Several values for one entry are separate records, joined by “and”; a condition that tells them apart may be missing. Equal entries are not always repeated. Values belong to the molecule of their own block, whether it stands above or below them. Starred links: 1 amine or outer side, 2 acyl side, 3 side chain; linkers in the order of their positions; H or OH if unused. Non-standard residues stand in square brackets, D forms with d. Residues, ends and D or L forms follow the SMILES beside them. No end group written: not given here. β3hPhg = O=C(C[C@@H](N[*:1])c1ccccc1)[*:2]; Sar = CNCC(=O)O

Legend:
[1] = system: conscious dog's gastrointestinal tract; test: Fasting IMC inducing activity in conscious dogs (force transducers); type: in vivo; conditions: for IMC Inducing activity: fasting period, intravenous, 0.1 μg/kg
Source text: More specifically, dogs under anesthesia were subjected to a surgical operation in which force transducers were sutured to the serous membranes of the gastric antrum, duodenum, jejunum and ileum along the ring-shaped muscle and, thereafter, the strain from each transducer was sent to a recorder via an amplifier.

[2] = Pharmacokinetic experiment on pulmonarily administered native motilin and motilin derivative compounds in rats (RIA); type: in vivo, rat; conditions: for Cmax / AUC / BA: 25 μg/rat; for AUC: trapezoidal method; for BA: relative to AUC of intravenous native motilin
Experimental: As test animals, 7- to 10-wk old male SD rats (purchased from CHARLES RIVER LABORATORIES JAPAN, INC.) that consisted of 3 rats per a group were subjected to the following experiment. Native motilin or motilin derivative compounds were dissolved in an aqueous solution of 0.1 N acetic acid to prepare a solution at a concentration of 1 mg/mL and 25 μL of the solution was administered into the polyethylene tube through the trachea by means of an intratracheal liquid spraying device (MicroSprayer; product of Penn Century). […] In the measurement, the respective derivatives were used as standard substances to construct calibration curves for determining the plasma levels.
Using these values, bioavailability (BA (%)) was calculated by the following equation: BA(%)=[(AUC/Dose)/(AUC(motilin—iv)/Dose(motilin—iv))]×100 • AUC: AUC (ng·min/mL) after pulmonary administration • Dose: dose (μg/kg) in pulmonary administration • AUC (motilin_iv): AUC (ng·min/mL) after intravenous administration of native motilin • Dose (motilin_iv): dose (μg/kg) in intravenous administration of native motilin.

[3] = Motilin degradation experiment using a lung homogenate supernatant; type: in vitro ADME
Source text: To solve this problem, the present inventors first assumed that motilin might be degraded after noninvasive transmucosal administration and performed a motilin degradation experiment using a lung homogenate supernatant.

[4] = Pharmacokinetic experiment on intranasally administered native motilin and a motilin derivative compound in monkeys (RIA); type: in vivo, cynomolgus monkey; conditions: intranasal administration; for BA: relative to intravenous AUC of each compound; for AUC / Cmax: male, cynomolgus monkey, plasma, inhaled or intranasal, mean for N = 1-2
Experimental: This example was conducted with a view to measuring by RIA the changes that occurred in monkeys in terms of the plasma concentrations of transnasally administered native motilin and a motilin derivative compound.
In the experiment, 10- to 11-year old male cynomolgus monkeys were used. Native motilin or compound 2 and microcrystalline cellulose were mixed at a ratio of 1:40 to prepare intranasal preparations, 20-mg portions of which were filled into gelatin capsules. Each capsule was administered into the right nasal cavity of each animal by means of an intranasal administration device (product of Hitachi Automotive Systems, Ltd.). Before administration and 5, 10, 15, 20, 30, 60, 120 and 180 minutes after administration, blood was sampled through the cephalic vein. The collected blood sample was treated as in Comparative Example 2 to separate plasma and the concentrations of native motilin and the motilin derivative compound in plasma were measured by RIA. In the measurement, the respective derivatives were used as standard substances to construct calibration curves for determining the plasma levels.
Using these values, bioavailability (BA (%)) was calculated by the following equation: BA(%)=[(AUC/Dose)/(AUC(iv)/Dose(iv))]×100 • AUC: AUC (ng·min/mL) after intranasal administration • Dose: dose (μg/kg) in intranasal administration • AUC (iv): AUC (ng·min/mL) after intravenous administration of each compound • Dose (iv): dose (μg/kg) in intravenous administration of each compound.

[5] = Pharmacokinetic experiment on intravenously administered native motilin in rats (RIA); type: in vivo; conditions: male, SD, rat, plasma, 100 ug/kg, intravenous, 100 μg/kg
Experimental: Native motilin was administered intravenously to rats and its plasma levels were measured.
As test animals, 7-wk old male SD rats (purchased from CHARLES RIVER LABORATORIES JAPAN, INC.) that consisted of 3 rats per a group were subjected to the following experiment. Native motilin was dissolved in a 5% mannitol solution to prepare a solution at a concentration of 100 μg/mL and this solution was administered to each rat at a dose of 1 mL/kg through the tail vein by means of a syringe and a 26G needle (both being products of TERUMO).

in vivo = conditions: male, cynomolgus monkey, iv, 10 ug/kg
Experimental: In this example, native motilin and a motilin derivative compound were administered intravenously to monkeys and their plasma concentrations were measured.
As test animals, 8- to 9-year old male cynomolgus monkeys (N=1-2 per group) were subjected to the following experiment. Native motilin and compound 2 were each dissolved in a 5% mannitol solution to prepare solutions at a concentration of 100 μg/mL; the solutions were administered to the animals at a dose of 0.1 mL/kg through the right cephalic vein by means of a syringe and a needle (both being products of TERUMO). Before administration and 5, 10, 15, 20, 30 and 60 minutes after administration, blood was sampled through the left cephalic vein.
To the collected sample, a 10% EDTA.2Na.2H2O solution was immediately added at a volume ratio of 1:100 and the plasma was separated by centrifugation. The plasma was immediately mixed with a 5,000 IU/mL aprotinin solution at a volume ratio of 1:10 and stored at −80° C. until use in measurement.
Measurement of the plasma concentrations of native motilin and the motilin derivative compound was conducted by the radioimmunoassay (RIA) technique using an anti-motilin antibody. Stated more specifically, after adding an anti-motilin antibody to the plasma sample, [^125I-Tyr7] motilin was added for a competitive reaction to take place. By subsequent addition of a secondary antibody, the motilin binding to the anti-motilin antibody was precipitated and after separating the supernatant, the radioactivity in the precipitating faction was measured with a γ-counter (product of PerkinElmer).
From the obtained profiles for the plasma concentrations of native motilin and the motilin derivative compound, the plasma concentration at time zero (C0) and the area under curve for plasma concentrations (AUC) were calculated as pharmacokinetic parameters; C0 was determined by extrapolation and AUC by the trapezoidal method.

[6] = HPLC fractionation and RIA of rat plasma after pulmonary administration (unaltered form vs metabolites); type: in vivo
Experimental: This example was conducted with a view to measuring by RIA the changes that occurred in rats in terms of the plasma concentrations of pulmonarily administered native motilin and motilin derivative compounds. When the RIA technique is applied, all substances that react with the anti-motilin antibody are detected, so aside from unaltered forms, metabolites that react with the antibody are also likely to be detected.
To be more specific, a polyethylene tube (PE-240; product of Clay Adams) was inserted into the trachea of 7-wk old male SD rats (purchased from CHARLES RIVER LABORATORIES JAPAN, INC.); native motilin or compound 2 (MT114) was dissolved in an aqueous solution of 0.1 N acetic acid to prepare a solution at a concentration of 1 mg/mL and 25 μL of the solution was administered into the polyethylene tube through the trachea by means of an intratracheal liquid spraying device (MicroSprayer; product of Penn Century). Five minutes after the administration, blood was sampled through the abdominal aorta and treated as in Comparative Example 1 to separate plasma. […] For each sample, an eluate was sampled at one-minute intervals from just after the sample injection to a 40-minute after sample injection and the immunological activity in each fraction was measured by RIA.

[7] = Non-Patent Document 18; cited from earlier work
[8] = in vivo, pulmonary administration
[9] = male, SD, plasma, other: pulmonary administration (intratracheal liquid spray)
[10] = male, SD, plasma, inhaled or intranasal, 25 ug/animal, pulmonary administration

Cmax [2, 8]: 6.1 ± 1.5 ng/mL
AUC [2, 8]: 3.16 ng·h/mL
BA ([2]; pulmonary administration): 5.9 ± 0.8%
Molecule: CC[C@H](C)[C@H](NC(=O)CN(C)C(=O)[C@@H](NC(=O)C[C@@H](N)c1ccccc1)C(C)C)C(=O)N[C@@H](Cc1ccccc1)C(=O)N[C@H](C(=O)N[C@@H](Cc1ccc(O)cc1)C(=O)NCC(=O)N[C@@H](CCC(=O)O)C(=O)N[C@@H](CC(C)C)C(=O)N[C@@H](CCC(N)=O)C(=O)N[C@@H](CCCNC(=N)N)C(=O)N[C@@H](CCSC)C(=O)N[C@@H](CCC(N)=O)C(=O)N[C@@H](CCC(=O)O)C(=O)N[C@@H](CCCCN)C(=O)N[C@@H](CCC(=O)O)C(=O)N[C@@H](CCCNC(=N)N)C(=O)N1CCC[C@H]1C(=O)N[C@@H](CCCCN)C(=O)N1CCC[C@H]1C(=O)N[C@@H](CCC(N)=O)C(=O)O)[C@@H](C)O [Compound 10, Phg(C#CH2) Val Sar Ile Phe Thr Tyr Gly Glu Leu Gln Arg Met Gln Glu Lys Glu Arg Pro Lys Pro Gln] (β3hPhg-V[Sar]IFTYGELQRMQEKERPKPQ-OH; N-terminus and C-terminus assumed)
IMC Inducing activity [1]: Positive

Molecule: CC[C@H](C)[C@H](NC(=O)[C@@H]1CCCN1C(=O)[C@@H](NC(=O)[C@@H](N)Cc1ccccc1)C(C)C)C(=O)N[C@@H](Cc1ccccc1)C(=O)N[C@H](C(=O)N[C@@H](Cc1ccc(O)cc1)C(=O)NCC(=O)N[C@@H](CCC(=O)O)C(=O)N[C@@H](CC(C)C)C(=O)N[C@@H](CCC(N)=O)C(=O)N[C@@H](CCCNC(=N)N)C(=O)N[C@@H](CCSC)C(=O)N[C@@H](CCC(N)=O)C(=O)N[C@@H](CCC(=O)O)C(=O)N[C@@H](CCCCN)C(=O)N[C@@H](CCC(=O)O)C(=O)N[C@@H](CCCNC(=N)N)C(=O)N[C@@H](CC(N)=O)C(=O)N[C@@H](CCCCN)C(=O)NCC(=O)N[C@@H](CCC(N)=O)C(=O)O)[C@@H](C)O [Native motilin, reference compound]
degradation in lung homogenate supernatant [3]: found to be degraded
BA [4]: 3.6%
AUC ([4]; 0.49 mg/animal): 4.02 ng·h/mL
Cmax ([4]; 0.49 mg/animal): 13.6 ng/mL
C0 ([5]; by extrapolation, read-out: plasma concentration at time zero (C0)): 1800 ng/mL
AUC ([5]; trapezoidal method, read-out: area under curve for plasma concentrations (AUC) (converted)): 60 ng·h/mL
AUC (in vivo): 13.1 ng·h/mL
C0 (in vivo): 233 ng/mL
IMC Inducing activity [1]: Positive
duration of contraction of the duodenum ([1]; intravenous 0.1 μg/kg, FIG. 1): about 10 minutes
duration of contraction of the gastric antrum ([1]; intravenous 0.1 μg/kg, FIG. 1): about 10 minutes
Cmax [2, 9]: 7.84 ± 0.98 ng/mL
AUC [2, 9]: 1.58 ng·h/mL
BA ([2]; pulmonary administration): 3.3 ± 0.1%
BA ([2]; pulmonary administration, listed as native motilin): 3.3%
immunological activity peaks in HPLC fractions of plasma ([6]; rat, in vivo): detected only at the elution point corresponding to the administered compound (in unaltered form)

Cmax [2, 10]: 4.53 ± 2.86 ng/mL
AUC [2, 10]: 1.05 ng·h/mL
BA ([2]; pulmonary administration): 2.8 ± 1.6%
BA ([2]; pulmonary administration, listed as comparative compound 1): 2.8%
Molecule: FVPIFTYGELQRLQEKERNKGQ [Comparative compound 1, reference compound]

Molecule: FVPIFTYGELQRLQEKERNKPQ [Compound 2]
profile of plasma concentration compared with native motilin ([4]; FIG. 5): a high peak level
BA [4]: 5.1%
AUC [4]: 6.02 ng·h/mL
Cmax [4]: 23.5 ng/mL
AUC (in vivo): 15.4 ng·h/mL
C0 (in vivo): 273 ng/mL
Cmax [2, 10]: 26.6 ± 11.3 ng/mL
AUC [2, 10]: 5.84 ng·h/mL
BA ([2]; pulmonary administration): 10.4% and 10.4 ± 4.3%
profile of plasma concentration compared with native motilin ([2]; pulmonary administration, FIG. 3): high peak levels
immunological activity peaks in HPLC fractions of plasma ([6]; rats, pulmonary administration, plasma 5 minutes after administration): detected only at the elution point corresponding to the administered compound (in unaltered form)

Molecule: FVPIFTYGELQRLQEKERPKPQ [Compound 9]
Cmax [2, 10]: 8.99 ± 5.99 ng/mL
AUC [2, 10]: 1.93 ng·h/mL
BA ([2]; pulmonary administration): 5.7 ± 3.1%

Molecule: atilmotin
half-life in plasma [7]: about 10 minutes
